According to patent publication US20200222474A1, “COMPOSITIONS AND METHODS FOR INCREASING PHYTOCHEMICAL BIOAVAILABLITY AND BIOACTIVITY” (North Carolina State University, priority 2017, published 2020):

System: L. acidophilus NCFM
Assay: RNA-seq transcriptional analysis of L. acidophilus NCFM growing on plant glycosides
Format: cell-based, Lactobacillus acidophilus
[1] = gene LBA0282 (Hypothetical protein)
[2] = gene LBA0327 (Replication protein)
[3] = gene LBA0328 (Hypothetical protein)
[4] = gene LBA0330 (Hypothetical protein)
[5] = gene LBA0457 (Hypothetical protein)
[6] = gene LBA0485 (Hypothetical protein)
[7] = gene LBA0486 (Hypothetical protein)
[8] = gene LBA0487 (Hypothetical protein.)
[9] = gene LBA0492 (Hypothetical protein)
[10] = gene LBA0541 (Cadmium-transporting ATPase)
[11] = gene LBA0542 (Putative heavy-metal-transporting alpase)
[12] = gene LBA0543 (Hypothetical protein)
[13] = gene LBA0544 (Transcriptional regulator)
[14] = gene LBA0555 (Myosin-crossreactive antigen)
[15] = gene LBA0564 (HAD family hydrolase)
[16] = gene LBA0574 (ABC multi drug exporter)
[17] = gene LBA0575 (ABC multi drug exporter)
[18] = gene LBA0604 (Immunity protein)
[19] = gene LBA0605 (Putative hydrolase)
[20] = gene LBA0608 (Hypothetical protein)
[21] = gene LBA0631 (Hypothetical protein)
[22] = gene LBA0649 (Myosin-crossreactive antigen)
[23] = gene LBA0728 (Hypothetical protein LBA0728)
[24] = gene LBA1025 (Aldo/keto reductase family oxidoreductase)
[25] = gene LBA1026 (Aldo/keto reduetase family oxidoreductase)
[26] = gene LBA1206 (Hypothetical protein)
[27] = gene LBA1401 (Peroxidase (Npx))
[28] = gene LBA1435 (Hypothetical protein)
[29] = gene LBA1455 (Putative surface layer protein)
[30] = gene LBA1469 (UDP-glucose 4-epimerase)
[31] = gene LBA1656 (Hypothetical protein)
[32] = gene LBA1675 (Hypothetical protein)
[33] = gene LBA1676 (ATP-dependent helicase)
[34] = gene LBA1683 (Putative magnesium-transporting atpase)
[35] = gene LBA1704 (N-Acetylmuramic acid-6-phosphate etherase)
[36] = gene LBA1740 (Hypothetical protein)
[37] = gene LBA1752 (Hypothetical protein)
[38] = gene LBA1769 (Hypothetical protein)
[39] = gene LBA1793 (Hypothetical protein)
[40] = gene LBA1869 (Beta-phosphoglueomutase)
[41] = gene LBA1895 (Hypothetical protein)
[42] = nTPM on plant glycoside relative to glucose, mid-exponential phase

N#C[C@H](O[C@@H]1O[C@H](CO[C@@H]2O[C@H](CO)[C@@H](O)[C@H](O)[C@H]2O)[C@@H](O)[C@H](O)[C@H]1O)c1ccccc1 [Amygdalin]
Log2 differential normalized TPM ratio compared to glucose [1]: 0.2
Log2 differential normalized TPM ratio compared to lactose [1]: −0.4
Transcripts per million (rpm) [1]: 20 rpm
Log2 differential normalized TPM ratio compared to glucose [2]: −0.9
Log2 differential normalized TPM ratio compared to lactose [2]: −1.1
Transcripts per million (rpm) [2]: 3.5 rpm
Log2 differential normalized TPM ratio compared to glucose [3]: −0.3
Log2 differential normalized TPM ratio compared to lactose [3]: −0.3
Transcripts per million (rpm) [3]: 9 rpm
Log2 differential normalized TPM ratio compared to glucose [4]: 0.1
Log2 differential normalized TPM ratio compared to lactose [4]: −0.2
Transcripts per million (rpm) [4]: 18.2 rpm
Log2 differential normalized TPM ratio compared to glucose [5]: 1.6
Log2 differential normalized TPM ratio compared to lactose [5]: 0.6
Transcripts per million (rpm) [5]: 1217.8 rpm
Log2 differential normalized TPM ratio compared to glucose [6]: 3.3
Log2 differential normalized TPM ratio compared to lactose [6]: 0.9
Transcripts per million (rpm) [6]: 1655 rpm
Log2 differential normalized TPM ratio compared to glucose [7]: 3.7
Log2 differential normalized TPM ratio compared to lactose [7]: 0.9
Transcripts per million (rpm) [7]: 2443 rpm
Log2 differential normalized TPM ratio compared to glucose [8]: 2.3
Log2 differential normalized TPM ratio compared to lactose [8]: 1
Transcripts per million (rpm) [8]: 132.1 rpm
Log2 differential normalized TPM ratio compared to glucose [9]: 5
Log2 differential normalized TPM ratio compared to lactose [9]: 2.6
Transcripts per million (rpm) [9]: 213.1 rpm
Log2 differential normalized TPM ratio compared to glucose [10]: 2
Log2 differential normalized TPM ratio compared to lactose [10]: −0.2
Transcripts per million (rpm) [10]: 119.7 rpm
Log2 differential normalized TPM ratio compared to glucose [11]: 2.2
Log2 differential normalized TPM ratio compared to lactose [11]: 0
Transcripts per million (rpm) [11]: 320.9 rpm
Log2 differential normalized TPM ratio compared to glucose [12]: 2.4
Log2 differential normalized TPM ratio compared to lactose [12]: 0
Transcripts per million (rpm) [12]: 283.1 rpm
Log2 differential normalized TPM ratio compared to glucose [13]: 1.9
Log2 differential normalized TPM ratio compared to lactose [13]: −0.1
Transcripts per million (rpm) [13]: 321.3 rpm
Log2 differential normalized TPM ratio compared to glucose [14]: 6
Log2 differential normalized TPM ratio compared to lactose [14]: 4.1
Transcripts per million (rpm) [14]: 2251.5 rpm
Log2 differential normalized TPM ratio compared to glucose [15]: 2.3
Log2 differential normalized TPM ratio compared to lactose [15]: 1.8
Transcripts per million (rpm) [15]: 4.1 rpm
Log2 differential normalized TPM ratio compared to glucose [16]: −1.2
Log2 differential normalized TPM ratio compared to lactose [16]: −1.5
Transcripts per million (rpm) [16]: 31.9 rpm
Log2 differential normalized TPM ratio compared to glucose [17]: −1
Log2 differential normalized TPM ratio compared to lactose [17]: −1.2
Transcripts per million (rpm) [17]: 32.6 rpm
Log2 differential normalized TPM ratio compared to glucose [18]: 2
Log2 differential normalized TPM ratio compared to lactose [18]: 1.6
Transcripts per million (rpm) [18]: 49.6 rpm
Log2 differential normalized TPM ratio compared to glucose [19]: 3.6
Log2 differential normalized TPM ratio compared to lactose [19]: 2.6
Transcripts per million (rpm) [19]: 26.3 rpm
Log2 differential normalized TPM ratio compared to glucose [20]: 3.1
Log2 differential normalized TPM ratio compared to lactose [20]: 2
Transcripts per million (rpm) [20]: 239.3 rpm
Log2 differential normalized TPM ratio compared to glucose [21]: 7.2
Log2 differential normalized TPM ratio compared to lactose [21]: 4
Transcripts per million (rpm) [21]: 141786.9 rpm
Log2 differential normalized TPM ratio compared to glucose [22]: 2.9
Log2 differential normalized TPM ratio compared to lactose [22]: 2.1
Transcripts per million (rpm) [22]: 228.6 rpm
Log2 differential normalized TPM ratio compared to glucose [23]: 6
Log2 differential normalized TPM ratio compared to lactose [23]: 4.2
Transcripts per million (rpm) [23]: 129.5 rpm
Log2 differential normalized TPM ratio compared to glucose (gene LBA0861 (Polyferredoxin)): 0
Log2 differential normalized TPM ratio compared to lactose (gene LBA0861 (Polyferredoxin)): −0.5
Transcripts per million (rpm) (gene LBA0861 (Polyferredoxin)): 153 rpm
Log2 differential normalized TPM ratio compared to glucose (gene LBA1023 (Oxidoreductase)): −1.5
Log2 differential normalized TPM ratio compared to lactose (gene LBA1023 (Oxidoreductase)): −1.8
Transcripts per million (rpm) (gene LBA1023 (Oxidoreductase)): 18.8 rpm
Log2 differential normalized TPM ratio compared to glucose [24]: −1.8
Log2 differential normalized TPM ratio compared to lactose [24]: −1.8
Transcripts per million (rpm) [24]: 7.2 rpm
Log2 differential normalized TPM ratio compared to glucose [25]: −1.7
Log2 differential normalized TPM ratio compared to lactose [25]: −2.1
Transcripts per million (rpm) [25]: 8.1 rpm
Log2 differential normalized TPM ratio compared to glucose (gene LBA1027 (Oxidoreductase)): 2.9
Log2 differential normalized TPM ratio compared to lactose (gene LBA1027 (Oxidoreductase)): 1.4
Transcripts per million (rpm) (gene LBA1027 (Oxidoreductase)): 3613.2 rpm
Log2 differential normalized TPM ratio compared to glucose [26]: 3.2
Log2 differential normalized TPM ratio compared to lactose [26]: 2
Transcripts per million (rpm) [26]: 984.2 rpm
Log2 differential normalized TPM ratio compared to glucose [27]: 4.4
Log2 differential normalized TPM ratio compared to lactose [27]: 2.3
Transcripts per million (rpm) [27]: 1161.2 rpm
Log2 differential normalized TPM ratio compared to glucose [28]: 7.1
Log2 differential normalized TPM ratio compared to lactose [28]: 3.3
Transcripts per million (rpm) [28]: 468.3 rpm
Log2 differential normalized TPM ratio compared to glucose [29]: 2.4
Log2 differential normalized TPM ratio compared to lactose [29]: 0.8
Transcripts per million (rpm) [29]: 73.9 rpm
Log2 differential normalized TPM ratio compared to glucose [30]: 2.4
Log2 differential normalized TPM ratio compared to lactose [30]: −2.6
Transcripts per million (rpm) [30]: 385.3 rpm
Log2 differential normalized TPM ratio compared to glucose [31]: 2.6
Log2 differential normalized TPM ratio compared to lactose [31]: 2.1
Transcripts per million (rpm) [31]: 103.5 rpm
Log2 differential normalized TPM ratio compared to glucose [32]: 2.1
Log2 differential normalized TPM ratio compared to lactose [32]: 0.6
Transcripts per million (rpm) [32]: 1397.9 rpm
Log2 differential normalized TPM ratio compared to glucose [33]: 1.9
Log2 differential normalized TPM ratio compared to lactose [33]: 0.7
Transcripts per million (rpm) [33]: 953.4 rpm
Log2 differential normalized TPM ratio compared to glucose [34]: 2
Log2 differential normalized TPM ratio compared to lactose [34]: 2.3
Transcripts per million (rpm) [34]: 53.6 rpm
Log2 differential normalized TPM ratio compared to glucose [35]: 2.1
Log2 differential normalized TPM ratio compared to lactose [35]: 1.4
Transcripts per million (rpm) [35]: 23 rpm
Log2 differential normalized TPM ratio compared to glucose [36]: 0.1
Log2 differential normalized TPM ratio compared to lactose [36]: −0.7
Transcripts per million (rpm) [36]: 15.4 rpm
Log2 differential normalized TPM ratio compared to glucose [37]: 0.8
Log2 differential normalized TPM ratio compared to lactose [37]: 0
Transcripts per million (rpm) [37]: 12.1 rpm
Log2 differential normalized TPM ratio compared to glucose [38]: 3
Log2 differential normalized TPM ratio compared to lactose [38]: 1.2
Transcripts per million (rpm) [38]: 10240.4 rpm
Log2 differential normalized TPM ratio compared to glucose [39]: 2.3
Log2 differential normalized TPM ratio compared to lactose [39]: −0.5
Transcripts per million (rpm) [39]: 67 rpm
Log2 differential normalized TPM ratio compared to glucose (gene LBA1796 (ABC exporter)): 2.4
Log2 differential normalized TPM ratio compared to lactose (gene LBA1796 (ABC exporter)): −0.1
Transcripts per million (rpm) (gene LBA1796 (ABC exporter)): 39.3 rpm
Log2 differential normalized TPM ratio compared to glucose [40]: 6.7
Log2 differential normalized TPM ratio compared to lactose [40]: 4.2
Transcripts per million (rpm) [40]: 670.5 rpm
Log2 differential normalized TPM ratio compared to glucose [41]: 2.8
Log2 differential normalized TPM ratio compared to lactose [41]: 2.6
Transcripts per million (rpm) [41]: 152.2 rpm
Log2 Ratio vs Glc, LBA0225 Phospho-β-glucosidase (GH1) [42]: 6.5
Log2 Ratio vs Glc, LBA0227 PTS EIIC [42]: 9.9
Log2 Ratio vs Glc, LBA0228 Transcriptional regulator [42]: 6.3
Log2 Ratio vs Glc, LBA0466 Phosphoenolpyruvate carboxykinase (ATP) [42]: 5.2
Log2 Ratio vs Glc, LBA0491 PTS EIIC [42]: 4.7
Log2 Ratio vs Glc, LBA0492 Hypothetical protein [42]: 5
Log2 Ratio vs Glc, LBA0555 Myosin-cross-reactive antigen/Fatty acid hydratase [42]: 6
Log2 Ratio vs Glc, LBA0606 PTS EIIBC [42]: 4.9
Log2 Ratio vs Glc, LBA0631 Hypothetical protein [42]: 7.2
Log2 Ratio vs Glc, LBA0724 Transcriptional regulator (antiterminator) [42]: 6.4
Log2 Ratio vs Glc, LBA0725 PTS EIICBA [42]: 9.7
Log2 Ratio vs Glc, LBA0726 Phospho-β-glucosidase (GH1) [42]: 7.2
Log2 Ratio vs Glc, LBA0728 Hypothetical protein [42]: 6
Log2 Ratio vs Glc, LBA0876 PTS EIIC [42]: 4.4
Log2 Ratio vs Glc, LBA0877 PTS EIIA [42]: 4.6
Log2 Ratio vs Glc, LBA1401 Peroxidase (Npx) [42]: 4.4
Log2 Ratio vs Glc, LBA1411 Fumarate reductase flavoprotein subunit [42]: 4
Log2 Ratio vs Glc, LBA1433 Dihydroxyacetone kinase [42]: 6
Log2 Ratio vs Glc, LBA1434 Dihydroxyacetone kinase [42]: 6.7
Log2 Ratio vs Glc, LBA1435 Hypothetical protein [42]: 7.1
Log2 Ratio vs Glc, LBA1436 Glycerol uptake facilitator protein [42]: 7.2
Log2 Ratio vs Glc, LBA1632 NAD-dependent aldehyde dehydrogenase [42]: 4.4
Log2 Ratio vs Glc, LBA1684 PTS EIIA [42]: 6.6
Log2 Ratio vs Glc, LBA1689 Maltose-6′-phosphate glucosidase (GH4) [42]: 5.3
Log2 Ratio vs Glc, LBA1701 Melibiose operon regulatory protein [42]: 5.3
Log2 Ratio vs Glc, LBA1709 Mucus binding protein precursor [42]: 4.5
Log2 Ratio vs Glc, LBA1797 Hypothetical protein [42]: 4.7
Log2 Ratio vs Glc, LBA1812 α-Glucosidase II (GH31) [42]: 5.3
Log2 Ratio vs Glc, LBA1869 β-Phosphoglucomutase [42]: 6.7
Log2 Ratio vs Glc, LBA1871 Neopullulanase (GH13) [42]: 4.3
Log2 Ratio vs Glc, LBA1873 Acetate kinase [42]: 4.6
Log2 Ratio vs Glc, LBA1974 Pyruvate oxidase [42]: 5.5
